Results taken from ChEMBL document CHEMBL1201862, “PubChem BioAssay data set” (2004).
The source made the active and inactive calls.

Legend:
[1] = target: Prothrombin (Bos taurus, UniProt P00735); assay: thrombin inhibition, dose response, biochemical, fluorescence polarization, uHTS hits (AID 602369); type: functional
[2] = target: 26S proteasome non-ATPase regulatory subunit 14 (Homo sapiens, UniProt O00487); assay: inhibition of proteasome subunit RPN11 – biochemical, fluorescence polarization, uHTS hits, confirmation (AID 602368); type: functional
[3] = target: 72 kDa type IV collagenase (Homo sapiens, UniProt P08253); assay: Dose Response validation of uHTS RPN11 inhibitor hits using a MMP-2 Fluorescence assay.; type: functional
[4] = target: T1, High affinity choline transporter 1 (Homo sapiens, UniProt Q9GZV3); assay: CHT activators, dose response, cell-based, 10-point CRC, membrane potential dye (AID 602376); type: functional
T1 sequence (Q9GZV3 whole entry): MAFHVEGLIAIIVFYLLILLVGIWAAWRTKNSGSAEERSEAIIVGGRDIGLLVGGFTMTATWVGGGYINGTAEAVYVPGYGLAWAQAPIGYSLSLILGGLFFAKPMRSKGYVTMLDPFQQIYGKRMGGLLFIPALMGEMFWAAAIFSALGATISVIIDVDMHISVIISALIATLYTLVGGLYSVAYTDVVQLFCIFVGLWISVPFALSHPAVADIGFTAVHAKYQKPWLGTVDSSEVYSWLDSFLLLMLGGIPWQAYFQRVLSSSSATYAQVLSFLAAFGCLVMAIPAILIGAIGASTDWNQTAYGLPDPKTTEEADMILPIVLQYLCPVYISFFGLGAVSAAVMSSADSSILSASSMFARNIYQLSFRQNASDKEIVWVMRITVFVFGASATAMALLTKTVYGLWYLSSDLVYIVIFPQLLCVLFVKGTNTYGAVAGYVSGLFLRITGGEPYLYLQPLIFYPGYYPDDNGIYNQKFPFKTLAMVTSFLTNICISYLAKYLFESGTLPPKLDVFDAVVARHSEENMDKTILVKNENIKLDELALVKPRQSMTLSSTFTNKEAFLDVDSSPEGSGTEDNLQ

[5] = target: DNA (cytosine-5)-methyltransferase 1 (Homo sapiens, UniProt P26358); assay: DNMT1 methyltransferase inhibitors, confirmation, biochemical, fluorescent molecular beacon (AID 602386); type: functional
[6] = target: T2, Rac GTPase-activating protein 1 (Homo sapiens, UniProt Q9H0H5); assay: MgcRacGAP GTPase-activating activity inhibitors, confirmation, biochemical, ADP Hunter fluorescence, primary and confirmatory (AID 624330); type: functional
T2 sequence (Q9H0H5 whole entry): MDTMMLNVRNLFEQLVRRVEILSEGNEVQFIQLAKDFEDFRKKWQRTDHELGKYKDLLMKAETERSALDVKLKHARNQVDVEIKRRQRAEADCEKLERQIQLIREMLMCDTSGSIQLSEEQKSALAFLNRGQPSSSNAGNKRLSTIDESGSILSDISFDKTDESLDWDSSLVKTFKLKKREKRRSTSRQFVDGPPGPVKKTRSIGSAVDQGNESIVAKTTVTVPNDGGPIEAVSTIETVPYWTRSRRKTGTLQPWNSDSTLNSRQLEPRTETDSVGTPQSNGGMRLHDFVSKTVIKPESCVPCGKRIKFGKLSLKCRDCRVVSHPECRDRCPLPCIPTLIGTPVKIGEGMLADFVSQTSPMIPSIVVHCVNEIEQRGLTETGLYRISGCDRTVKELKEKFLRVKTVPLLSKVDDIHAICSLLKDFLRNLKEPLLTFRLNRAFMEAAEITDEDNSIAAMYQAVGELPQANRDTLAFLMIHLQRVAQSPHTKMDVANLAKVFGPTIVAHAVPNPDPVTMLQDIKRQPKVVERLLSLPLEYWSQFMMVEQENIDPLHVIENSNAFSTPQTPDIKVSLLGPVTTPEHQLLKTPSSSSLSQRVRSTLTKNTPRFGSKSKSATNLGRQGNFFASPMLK

[7] = target: T3, DNA repair protein RAD52 homolog (Homo sapiens, UniProt P43351); type: functional, biochemical
T3 sequence (P43351 whole entry): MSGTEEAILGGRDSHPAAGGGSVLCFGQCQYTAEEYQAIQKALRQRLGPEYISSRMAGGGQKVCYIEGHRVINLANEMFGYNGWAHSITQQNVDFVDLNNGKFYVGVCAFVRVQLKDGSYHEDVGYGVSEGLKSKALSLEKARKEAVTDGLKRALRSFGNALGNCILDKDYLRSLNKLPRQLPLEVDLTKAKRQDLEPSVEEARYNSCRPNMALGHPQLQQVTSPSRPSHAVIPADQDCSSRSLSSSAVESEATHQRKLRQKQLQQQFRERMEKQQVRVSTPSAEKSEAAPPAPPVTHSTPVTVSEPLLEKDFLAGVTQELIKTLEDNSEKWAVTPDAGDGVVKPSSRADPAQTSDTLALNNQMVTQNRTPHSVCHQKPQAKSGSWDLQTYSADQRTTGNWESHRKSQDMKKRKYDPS

[8] = THP-1 cell cytotoxicity, dose response, cytotoxicity control, set 3 (AID 504852); type: functional; conditions: Mycobacterium tuberculosis
[9] = THP-1 cell cytotoxicity, cytotoxicity control, set 4 (AID 504911); type: functional; conditions: Mycobacterium tuberculosis
[10] = A Cell Based Secondary Assay to Explore Cytotoxicity in THP-1 Cells of Compounds that Modulate Mycobacterium tuberculosis in Media Containing Glycerol versus Media without Glycerol (2).; type: functional
[11] = target: Mitogen-activated protein kinase kinase kinase kinase 4 (Homo sapiens, UniProt O95819); type: functional
Sequence of Mitogen-activated protein kinase kinase kinase kinase 4 (O95819 whole entry): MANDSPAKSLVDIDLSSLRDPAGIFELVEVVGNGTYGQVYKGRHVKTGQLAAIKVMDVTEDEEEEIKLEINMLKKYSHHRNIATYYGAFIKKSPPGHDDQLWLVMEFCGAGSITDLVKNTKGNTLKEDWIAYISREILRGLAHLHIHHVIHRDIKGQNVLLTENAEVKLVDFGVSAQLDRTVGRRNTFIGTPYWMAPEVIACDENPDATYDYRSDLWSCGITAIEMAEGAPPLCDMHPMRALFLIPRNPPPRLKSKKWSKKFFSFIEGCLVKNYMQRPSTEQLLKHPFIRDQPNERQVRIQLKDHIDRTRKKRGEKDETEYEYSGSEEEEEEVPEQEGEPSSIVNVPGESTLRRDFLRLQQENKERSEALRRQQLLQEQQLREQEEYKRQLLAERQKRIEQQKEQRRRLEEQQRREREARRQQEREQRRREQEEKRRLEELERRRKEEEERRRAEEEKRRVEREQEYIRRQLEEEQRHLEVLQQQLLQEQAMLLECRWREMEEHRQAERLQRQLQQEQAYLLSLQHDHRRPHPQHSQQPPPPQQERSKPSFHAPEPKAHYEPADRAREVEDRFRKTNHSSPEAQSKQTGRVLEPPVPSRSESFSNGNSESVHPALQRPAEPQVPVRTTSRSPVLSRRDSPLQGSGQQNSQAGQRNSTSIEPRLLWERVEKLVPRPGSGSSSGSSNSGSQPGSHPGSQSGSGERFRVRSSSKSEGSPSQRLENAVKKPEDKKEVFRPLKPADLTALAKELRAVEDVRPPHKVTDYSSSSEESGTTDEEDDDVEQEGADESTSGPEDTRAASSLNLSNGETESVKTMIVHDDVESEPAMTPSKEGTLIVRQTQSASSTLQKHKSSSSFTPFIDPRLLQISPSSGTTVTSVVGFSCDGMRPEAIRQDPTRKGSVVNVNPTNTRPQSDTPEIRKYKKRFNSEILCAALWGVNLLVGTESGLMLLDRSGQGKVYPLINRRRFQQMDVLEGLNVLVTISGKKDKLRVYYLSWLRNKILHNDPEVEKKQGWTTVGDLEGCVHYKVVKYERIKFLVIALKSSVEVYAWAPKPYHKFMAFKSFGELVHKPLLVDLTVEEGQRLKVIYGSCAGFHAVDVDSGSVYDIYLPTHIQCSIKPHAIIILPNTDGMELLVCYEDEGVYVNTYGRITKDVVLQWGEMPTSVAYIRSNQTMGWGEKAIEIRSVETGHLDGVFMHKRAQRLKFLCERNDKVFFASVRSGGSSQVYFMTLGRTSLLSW

[12] = target: Misshapen-like kinase 1 (Homo sapiens, UniProt Q8N4C8); type: functional;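 note: kinome panel screen with MINK as the panel member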
[13] = target: Cell division cycle 7-related protein kinase (Homo sapiens, UniProt O00311); type: functional;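 note: value obtained from a kinome-wide kinase panel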
Sequence of Cell division cycle 7-related protein kinase (O00311 whole entry): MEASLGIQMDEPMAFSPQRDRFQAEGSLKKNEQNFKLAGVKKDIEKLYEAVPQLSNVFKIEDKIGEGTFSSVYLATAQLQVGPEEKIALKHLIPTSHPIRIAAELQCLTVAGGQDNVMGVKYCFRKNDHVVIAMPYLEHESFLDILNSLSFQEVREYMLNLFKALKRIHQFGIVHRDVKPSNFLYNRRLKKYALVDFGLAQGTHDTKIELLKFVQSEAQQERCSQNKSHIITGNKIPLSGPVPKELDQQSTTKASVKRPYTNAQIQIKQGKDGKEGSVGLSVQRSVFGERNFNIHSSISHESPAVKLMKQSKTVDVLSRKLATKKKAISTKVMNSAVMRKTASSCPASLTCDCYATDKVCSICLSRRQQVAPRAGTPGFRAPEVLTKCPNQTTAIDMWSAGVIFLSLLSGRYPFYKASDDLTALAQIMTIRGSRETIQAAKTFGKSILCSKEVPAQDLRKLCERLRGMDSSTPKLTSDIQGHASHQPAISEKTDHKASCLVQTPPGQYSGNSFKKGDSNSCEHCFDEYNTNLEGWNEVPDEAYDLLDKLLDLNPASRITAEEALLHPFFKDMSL

[14] = target: Interleukin-1 receptor-associated kinase 4 (Homo sapiens, UniProt Q9NWZ3); type: functional
[15] = target: Glycogen synthase kinase-3 beta (Homo sapiens, UniProt P49841); type: functional;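 note: value comes from a broad kinome profiling panel, with GSK3B as the panel member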
Sequence of Glycogen synthase kinase-3 beta (P49841 whole entry): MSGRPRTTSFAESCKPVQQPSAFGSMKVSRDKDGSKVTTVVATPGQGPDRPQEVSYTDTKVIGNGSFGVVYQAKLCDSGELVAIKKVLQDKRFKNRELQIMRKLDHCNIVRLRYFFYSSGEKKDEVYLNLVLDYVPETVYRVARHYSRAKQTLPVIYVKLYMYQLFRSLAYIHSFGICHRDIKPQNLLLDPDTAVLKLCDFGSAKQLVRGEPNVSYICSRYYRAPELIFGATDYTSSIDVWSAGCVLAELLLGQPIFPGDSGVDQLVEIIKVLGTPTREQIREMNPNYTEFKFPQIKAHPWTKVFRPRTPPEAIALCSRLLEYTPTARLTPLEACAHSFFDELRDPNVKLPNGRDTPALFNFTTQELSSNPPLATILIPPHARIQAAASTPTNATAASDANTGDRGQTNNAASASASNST

[16] = target: Serine/threonine-protein kinase pim-1 (Homo sapiens, UniProt P11309); type: functional
[17] = target: cAMP-dependent protein kinase catalytic subunit alpha (Homo sapiens, UniProt P17612); type: functional
[18] = target: Homeodomain-interacting protein kinase 2 (Homo sapiens, UniProt Q9H2X6); type: functional;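 note: measured within a kinome-wide kinase profiling panel, HIPK2 being one panel member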
[19] = target: Dual specificity protein kinase CLK4 (Homo sapiens, UniProt Q9HAZ1); type: functional
Sequence of Dual specificity protein kinase CLK4 (Q9HAZ1 whole entry): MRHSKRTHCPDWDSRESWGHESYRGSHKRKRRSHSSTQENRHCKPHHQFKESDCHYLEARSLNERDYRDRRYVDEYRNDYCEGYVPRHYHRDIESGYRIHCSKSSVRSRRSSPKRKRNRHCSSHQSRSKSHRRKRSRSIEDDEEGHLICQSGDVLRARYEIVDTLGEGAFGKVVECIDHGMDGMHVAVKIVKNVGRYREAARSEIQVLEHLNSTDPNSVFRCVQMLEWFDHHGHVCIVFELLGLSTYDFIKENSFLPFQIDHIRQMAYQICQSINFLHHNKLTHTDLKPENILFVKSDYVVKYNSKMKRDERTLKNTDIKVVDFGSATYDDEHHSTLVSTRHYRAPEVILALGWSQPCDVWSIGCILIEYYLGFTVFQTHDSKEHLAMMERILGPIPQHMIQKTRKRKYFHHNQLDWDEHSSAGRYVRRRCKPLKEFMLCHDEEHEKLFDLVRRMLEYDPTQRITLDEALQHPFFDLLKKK

[20] = target: Dual specificity protein kinase CLK2 (Homo sapiens, UniProt P49760); type: functional
[21] = target: MAP/microtubule affinity-regulating kinase 3 (Homo sapiens, UniProt P27448); type: functional;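 note: MARK3 affinity measured as one member of a kinome panel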
[22] = target: Tyrosine-protein kinase receptor UFO (Homo sapiens, UniProt P30530); type: functional
[23] = target: Cyclin-dependent kinase 1 (Homo sapiens, UniProt P06493); type: functional;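 note: Kinome-wide panel profiling, with the target listed as panel member CDC2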
Sequence of Cyclin-dependent kinase 1 (P06493 whole entry): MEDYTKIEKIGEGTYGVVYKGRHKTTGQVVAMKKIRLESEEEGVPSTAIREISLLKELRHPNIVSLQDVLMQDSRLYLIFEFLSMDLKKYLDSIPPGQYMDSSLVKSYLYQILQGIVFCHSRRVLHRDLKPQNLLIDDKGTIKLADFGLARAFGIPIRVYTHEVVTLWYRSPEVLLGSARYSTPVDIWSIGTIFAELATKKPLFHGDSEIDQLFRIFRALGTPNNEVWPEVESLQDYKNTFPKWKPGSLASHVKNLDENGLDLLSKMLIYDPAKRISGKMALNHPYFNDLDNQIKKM

[24] = target: Cyclin-dependent kinase 5 (Homo sapiens, UniProt Q00535); type: functional;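 note: CDK5 measured as one member of a kinase profiling panel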
Sequence of Cyclin-dependent kinase 5 (Q00535 whole entry): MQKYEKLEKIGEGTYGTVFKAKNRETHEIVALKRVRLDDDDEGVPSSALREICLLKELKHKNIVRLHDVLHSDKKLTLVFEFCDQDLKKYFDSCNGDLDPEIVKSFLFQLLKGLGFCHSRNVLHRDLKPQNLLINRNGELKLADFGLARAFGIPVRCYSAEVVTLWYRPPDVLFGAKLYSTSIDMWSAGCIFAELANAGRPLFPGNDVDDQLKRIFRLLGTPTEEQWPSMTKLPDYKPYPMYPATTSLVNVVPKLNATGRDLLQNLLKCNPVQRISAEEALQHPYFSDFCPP

[25] = target: STE20-like serine/threonine-protein kinase (Homo sapiens, UniProt Q9H2G2); type: functional
[26] = target: ALK tyrosine kinase receptor (Homo sapiens, UniProt Q9UM73); type: functional;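 note: ALK tested as one member of a kinase panel screen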
Sequence of ALK tyrosine kinase receptor (Q9UM73 whole entry): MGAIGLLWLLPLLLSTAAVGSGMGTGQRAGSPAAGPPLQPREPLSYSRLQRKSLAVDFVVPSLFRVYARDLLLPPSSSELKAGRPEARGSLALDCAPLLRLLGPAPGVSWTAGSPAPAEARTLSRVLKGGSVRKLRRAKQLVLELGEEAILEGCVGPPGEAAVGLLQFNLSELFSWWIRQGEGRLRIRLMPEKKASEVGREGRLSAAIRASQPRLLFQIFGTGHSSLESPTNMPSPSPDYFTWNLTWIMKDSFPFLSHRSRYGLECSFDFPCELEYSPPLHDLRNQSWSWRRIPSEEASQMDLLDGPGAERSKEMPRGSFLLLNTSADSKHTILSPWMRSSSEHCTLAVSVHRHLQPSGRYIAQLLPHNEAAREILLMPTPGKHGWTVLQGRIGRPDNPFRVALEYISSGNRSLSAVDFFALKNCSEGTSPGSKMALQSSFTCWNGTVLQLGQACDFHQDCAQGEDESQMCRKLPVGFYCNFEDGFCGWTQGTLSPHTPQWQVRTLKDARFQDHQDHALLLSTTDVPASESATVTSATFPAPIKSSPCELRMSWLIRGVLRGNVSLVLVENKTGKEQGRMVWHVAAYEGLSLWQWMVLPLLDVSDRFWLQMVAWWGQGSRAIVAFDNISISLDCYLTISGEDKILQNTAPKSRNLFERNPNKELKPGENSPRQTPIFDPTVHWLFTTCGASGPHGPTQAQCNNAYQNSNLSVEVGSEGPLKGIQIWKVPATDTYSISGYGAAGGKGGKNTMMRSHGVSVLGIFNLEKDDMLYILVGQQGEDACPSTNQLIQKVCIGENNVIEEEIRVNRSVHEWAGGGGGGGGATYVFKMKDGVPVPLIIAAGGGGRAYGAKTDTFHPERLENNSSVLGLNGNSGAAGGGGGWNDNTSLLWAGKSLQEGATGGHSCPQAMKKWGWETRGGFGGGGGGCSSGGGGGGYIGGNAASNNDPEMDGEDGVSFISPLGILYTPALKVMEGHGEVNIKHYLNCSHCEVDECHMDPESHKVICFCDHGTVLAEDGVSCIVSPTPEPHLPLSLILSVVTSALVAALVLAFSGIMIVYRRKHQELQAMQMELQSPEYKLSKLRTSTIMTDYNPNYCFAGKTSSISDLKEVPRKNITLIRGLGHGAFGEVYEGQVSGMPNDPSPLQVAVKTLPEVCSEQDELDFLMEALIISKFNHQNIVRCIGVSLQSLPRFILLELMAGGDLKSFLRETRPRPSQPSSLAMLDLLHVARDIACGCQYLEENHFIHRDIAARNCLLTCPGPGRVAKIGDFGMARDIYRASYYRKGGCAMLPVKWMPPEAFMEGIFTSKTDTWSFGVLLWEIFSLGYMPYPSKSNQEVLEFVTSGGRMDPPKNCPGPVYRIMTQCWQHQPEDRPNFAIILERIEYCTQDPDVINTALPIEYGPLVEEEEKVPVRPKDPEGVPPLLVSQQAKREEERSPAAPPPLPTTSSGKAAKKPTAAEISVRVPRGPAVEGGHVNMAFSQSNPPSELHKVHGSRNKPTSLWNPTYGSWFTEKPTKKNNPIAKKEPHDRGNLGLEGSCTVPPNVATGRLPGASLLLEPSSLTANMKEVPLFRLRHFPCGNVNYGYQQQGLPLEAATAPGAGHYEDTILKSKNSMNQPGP

SMILES: COc1ccc(CCNc2ccc(C(CC(N)=O)NC(=O)Cc3cccc4ccccc34)cc2[N+](=O)[O-])cc1 (stereo not given)
- IC50 [1]: 40.1 µM (active)
- IC50 [2]: 25.8 µM (active)
- IC50 [3]: > 100 µM (inactive)

SMILES: CC(NCc1cc(Br)ccc1OCC(N)=O)C12CC3CC(CC(C3)C1)C2 (stereo not given)
- EC50 [4]: 13.8 µM (active)

SMILES: CC[N+](C)(CC)CCCCOc1ccc2c(c1)C(=O)c1cc(OCCCC[N+](C)(CC)CC)ccc1-2
- IC50 [5]: 1.24 µM (active)
- IC50 [6]: 180 µM (active)
- AC50 [7]: 0.574 µM (active)
- CC50 [8]: 17.1 µM (active)
- CC50 [9]: 10.5 µM (active)
- CC50 [10]: 38.8 µM (active)

SMILES: CC(C)Oc1ccc(-c2noc(-c3ccc(CN4CC(C(=O)O)C4)cc3)n2)cc1Cl
- Ki [11]: 5.01 µM (active)
- Ki [12]: 6.31 µM (active)

SMILES: O=C1Nc2ccccc2Nc2cc(-c3ccncc3)ccc21
- Ki [13]: 0.00794 µM (active)
- Ki [14]: 2.51 µM (active)
- Ki [15]: 0.398 µM (active)
- Ki [16]: > 10 µM (inactive)
- Ki [11]: 1.26 µM (active)
- Ki [17]: 1.26 µM (active)
- Ki [18]: > 3.16 µM (inactive)
- Ki [19]: 0.0398 µM (active)

SMILES: Cc1n[nH]c2c1C(c1ccccc1Br)C(C#N)=C(N)O2 (stereo not given)
- Ki [20]: 3.16 µM (active)
- Ki [15]: 3.98 µM (active)
- Ki [21]: 2 µM (active)
- Ki [22]: 2 µM (active)
- Ki [23]: 5.01 µM (active)
- Ki [24]: 3.16 µM (active)
- Ki [19]: 5.01 µM (active)
- Ki [25]: 1.58 µM (active)

SMILES: Oc1cccc(-c2c[nH]c3ncccc23)c1
- Ki [13]: 0.316 µM (active)
- Ki [26]: > 3.16 µM (inactive)
